We go through four molecules from patent US11878001B2, “Use of mavoglurant in the reduction of cocaine use or in preventing relapse into cocaine use” (NOVARTIS AG, priority 2017, dated 2024).

Entries after “also recorded” stand apart in the source; their conditions may differ.

Data set [1] deals with Sprague-Dawley rats. Kind of data set: Acute effects on intravenous cocaine self-administration (FR5) in rats, Phase I. It counts as in vivo. The settings on record: cocaine 0.3 mg/kg/infusion. The text has this:
(§1) Evaluation of the Effects of Mavoglurant on Cocaine Dependence and Cocaine Reinstatement Using the Intravenous Self-Administration Model in Sprague-Dawley Rats
(§2) Adult male Sprague-Dawley rats (300-325 g at arrival) from Harlan Laboratory (Indiana, USA) were used. Upon arrival, the rats were assigned a unique identification numbers (tail marks). Animals were single housed in suspended polycarbonate rat cages with filter tops, and were acclimated for up to 7 days. All rats were examined, handled, and weighed prior to initiation of the study to assure adequate health and suitability. During the course of the study, 12 h/12 h light/dark cycles were maintained. The room temperature was 21-23° C. with a relative humidity maintained at 30-70%. Water was provided ad libitum for the duration of the study.
Cocaine Hydrochloride (Sigma-Aldrich, USA) (1.05 mg/ml which is equivalent to 0.3 mg/kg/infusion under 350 g body weight and 0.1 ml/infusion rate) was dissolved in saline (0.9% NaCl). The formulation was a clear solution.
(§3) Mavoglurant (free form) was formulated in 0.5% methylcellulose (MC) at 1, 3 and 10 mg/kg and administered orally at a dose volume of 1 ml/kg 60 minutes prior to test.
Intravenous drug self-administration took place in sound attenuated operant chambers equipped with an exhaust fan (Med Associates, VT). Each chamber contained two levers situated on one wall of the chamber. Only one of the two levers was active (located on the left side). Pressing the active lever caused delivery of reinforcer (food or cocaine). […] A stimulus light was located above each lever, but only the one above the active lever was on during the timeout period (defined below). A house light (providing illumination) was located at the top of opposite wall. For food training (see details below), a pellet receptacle was situated between the two levers for delivery of food pellets (Bio-Serv's Dustless Precision Pellets #F0165, 45 mg). […]

Data set [2] deals with Sprague-Dawley rats. Kind of data set: Cue-induced reinstatement of the cocaine self-administration response after extinction, Phase II. It counts as in vivo. The settings on record: 10 mg/kg PO, 1 hour prior to test; after 9-day extinction; N=14-15 per group.
Description: as §1, §2, §3
Intravenous drug self-administration took place in sound attenuated operant chambers equipped with an exhaust fan (Med Associates, VT). Each chamber contained two levers situated on one wall of the chamber. […]
During the reinstatement session, which occurred one day after the last extinction session, rats were presented the cues (flash+tone) at the beginning of the session and their lever-press responses recorded. […]

Another data set concerns mice. The settings on record: cited from earlier work.
Another data set concerns rats. The settings on record: cited from earlier work.
A further data set has as its system NMDA receptors. The settings on record: cited from earlier work.
Another data set has as its system monoamine oxidase. The settings on record: cited from earlier work.
Data set [3] concerns the target norepinephrine transporter (Homo sapiens, UniProt P23975). The settings on record: cited from earlier work.
The next data set deals with T1, cytochrome P450 1A2 (Homo sapiens, UniProt P05177).
T1 sequence (P05177 1-516): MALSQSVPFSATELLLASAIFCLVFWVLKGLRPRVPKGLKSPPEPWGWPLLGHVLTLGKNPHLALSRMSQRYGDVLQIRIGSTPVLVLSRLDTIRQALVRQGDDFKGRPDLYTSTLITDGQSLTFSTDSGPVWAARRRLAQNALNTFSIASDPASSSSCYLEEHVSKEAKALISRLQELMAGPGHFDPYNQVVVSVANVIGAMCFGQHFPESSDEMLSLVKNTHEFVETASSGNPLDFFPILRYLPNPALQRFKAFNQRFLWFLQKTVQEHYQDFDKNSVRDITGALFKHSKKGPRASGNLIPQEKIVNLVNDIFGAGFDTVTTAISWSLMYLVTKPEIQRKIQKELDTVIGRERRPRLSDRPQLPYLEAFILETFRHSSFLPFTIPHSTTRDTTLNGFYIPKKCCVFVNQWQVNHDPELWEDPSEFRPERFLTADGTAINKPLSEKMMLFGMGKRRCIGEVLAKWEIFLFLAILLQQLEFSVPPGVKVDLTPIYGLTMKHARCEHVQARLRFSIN
The settings on record: cited from earlier work.

The conditions of data set [4]: in vivo; cited from earlier work.

Chain of norepinephrine transporter (P23975 whole entry, species assumed): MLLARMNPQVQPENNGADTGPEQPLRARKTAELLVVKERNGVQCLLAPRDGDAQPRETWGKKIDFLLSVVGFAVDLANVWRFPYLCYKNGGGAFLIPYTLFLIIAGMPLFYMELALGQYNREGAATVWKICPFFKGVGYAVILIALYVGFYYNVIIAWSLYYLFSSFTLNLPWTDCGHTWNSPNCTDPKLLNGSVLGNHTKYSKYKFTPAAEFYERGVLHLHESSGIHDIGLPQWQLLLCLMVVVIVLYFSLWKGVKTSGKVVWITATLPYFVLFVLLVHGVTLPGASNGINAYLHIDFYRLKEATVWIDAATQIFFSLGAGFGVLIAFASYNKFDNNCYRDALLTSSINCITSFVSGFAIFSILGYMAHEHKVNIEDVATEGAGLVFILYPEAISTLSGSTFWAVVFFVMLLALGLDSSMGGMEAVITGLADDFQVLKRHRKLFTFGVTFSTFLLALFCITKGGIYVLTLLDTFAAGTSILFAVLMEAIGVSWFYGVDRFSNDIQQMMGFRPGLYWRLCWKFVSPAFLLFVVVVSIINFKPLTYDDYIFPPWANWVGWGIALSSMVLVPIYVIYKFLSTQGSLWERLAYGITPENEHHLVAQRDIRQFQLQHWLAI

With `COC(=O)N1CC[C@@H]2[C@H]1CCC[C@@]2(O)C#Cc1cccc(C)c1` [mavoglurant, (−)-(3aR,4S,7aR)-4-Hydroxy-4-m-tolylethynyl-octahydro-indole-1-carboxylic acid methyl ester], the “responding on the active lever (cocaine self-administration)” value in the data set on Sprague-Dawley rats [1] (3 mg/kg orally, 60 minutes prior to test, post hoc p<0.10, N=12) is reported as “tended to reduce responding on the active lever”; in the data set on Sprague-Dawley rats [1] (10 mg/kg PO, 1 hour prior to test, post hoc p<0.001, N=12), “significantly reduced responding”; in the data set with Sprague-Dawley rats [1] (10 mg/kg PO, 1 hour prior to test, post hoc p<0.001, N=12, listed as Mavoglurant), “significantly reduced cocaine self-administration”. Moreover, in the data set with Sprague-Dawley rats [2], the “cue-induced reinstatement of the self-administration response” value is “cue-induced reinstatement was suppressed; also recorded: completely prevented cue-induced reinstatement”.

Consider `Cc1cccc(C#Cc2ccccc2)n1` [MPEP, 2-methyl-6-(2-phenylethynyl)pyridine], for which the cocaine self-administration entry with mice and in the data set on rats was “decreased cocaine self-administration” each time. Further, the “off-target effects on NMDA receptors” value with NMDA receptors is given as “off-target effects”. Besides, the “off-target effects on monoamine oxidase” value in the data set with monoamine oxidase is “off-target effects”. In data set [3], the “off-target effects on the norepinephrine transporter” value is given as “off-target effects”.

For `Cc1nc(C#Cc2cccnc2)cs1` [MTEP, 3-[2-(2-methylthiazol-4-yl)ethynyl]pyridine], the cocaine self-administration result with mice and in the data set on rats was “decreased cocaine self-administration” throughout. Further, the “inhibition of cytochrome P450 1A2” value on cytochrome P450 1A2 is recorded as “potent inhibition”.

Take `CNCCCN1c2ccccc2CCc2ccccc21` [desipramine]: in data set [4], the cocaine craving result is listed as “reduce”, the cocaine use result is “reduce” and the “symptoms of cocaine withdrawal” value was “alleviate symptoms of cocaine withdrawal”.
